Data set [1] can be described thus: Selectivity index, ratio of CC50 for MDCK cells to IC50 for oseltamivir-resistant Influenza A virus (A/Puerto Rico/8/1934(H1N1)) infected in MDCK cells at MOI of 10^-3 after 18 hrs. It counts as toxicity, cell-based. The note with it: dog, read-out: Ratio CC50/IC50.
Another data set relates to Influenza A virus. The experiment in a line: Antiviral activity against oseltamivir-resistant Influenza A virus (A/Puerto Rico/8/1934(H1N1)) infected in MDCK cells at MOI of 10^-3 assessed as decrease in viral load after 18 hrs by immunofluorescence analysis. It counts as functional, organism-based.

SMILES strings stand for the structures.

A word on the IC50: it is the point on the concentration scale where inhibition reaches its midpoint.

As to `COc1ccc2cc(-c3c(C(=O)[O-])ccc(Oc4ccc(N)cc4)c3C(=O)[O-])ccc2c1.[Na+].[Na+]`, the selectivity ratio at 18 h in data set [1] amounted to 12000. Further, the IC50 in the data set with Influenza A virus is 1 µM.
The matching figures for `COc1ccc2cc(-c3c(C(=O)[O-])cccc3C(=O)[O-])ccc2c1.[Na+].[Na+]`: 1480 and 8.8 µM.
The matching figures for `COc1ccc2cc(-c3c(C(=O)O)cc(Oc4ccc(N)cc4)cc3C(=O)O)ccc2c1`: 1620 and 8 µM.

For the origin of these results see ChEMBL document CHEMBL4196106, “From Naproxen Repurposing to Naproxen Analogues and Their Antiviral Activity against Influenza A Virus” (J Med Chem, 2018).
